Assays:
Format in all cases: cell-based, human
MCA10F cells = assay: Cell cycle distribution of exponentially growing MCA10F cells (FIG. 9); conditions: sorted on siGLO-FITC
Procedure: FIG. 9 provides an assessment of TRIM62siRNA on the cell cycle of MCA10F exponentially growing cells. The cells were sorted on siGLO-FITC.
(§1) 4×10^5 MCF10A cells (immortalized, non-transformed epithelial cells derived from human fibrocystic mammary tissue; ATCC CRL-10217) or BT474 cells (Her2^+ human breast cancer cell line) were seeded in growth media (DMEM/F12 (Gibco), 5% horse serum (Invitrogen), […] (Peprotech), 1 mg/ml hydrocortisone (Sigma), […] cholera toxin (Sigma), […] (Sigma), and Pen/Strep (Invitrogen)). After 24 hours, media was changed to antibiotic-free growth medium, and lipofectamine 2000 was used to cotransfect MCF10A cells with either 15 nM Trim62SiRNA (SEQ ID NO: 9; 5′ AAGAAGCAGAGAAGCGCGC-3″ (Integrated DNA Technologies)) and 15 nM siGlow (non-targeting control siRNA labeled with Cy3 (Thermo Scientific)), or 15 nM Trim62scrambled siRNA (SEQ ID NO:10; 5′ GCGAGGACGGACAAA CAGA 3′ (Sigma)) and 15 nM siGlow; for BT474 cells 25 nM siRNA was used. 6 hours post transfection, media was replaced with growth media containing antibiotics, and 48 hours postransfection, MCF10A cell were incubated for 1.5 hours with […] (5-ethynyl-2′-deoxyuridine, an analog of BrdU); for BT474 cells incubation with EdU was for 12 hours. […] The data was collected using a BD FACS Diva software package and analyzed using BD CellQuest Pro Software. […]

MCF10A cells = assay: EdU incorporation by flow cytometry in MCF10A cells; conditions: 15 nM siRNA, 48 hours posttransfection, 1.5 hours EdU, control SiRNA 29.5%
Procedure: as §1, with “hours. Cells were trypsinized, washed with PBS-1% FBS, and sorted for Cy3 transfection marker using a cell sorter (BD FACSArisII cell sorter).” for “hours.”

BT474 cells = assay: EdU incorporation by flow cytometry in BT474 cells; conditions: 25 nM siRNA, 12 hours EdU, Control siRNA 17.5%
Procedure: as §1, with “hours. Cells were trypsinized, washed with PBS-1% FBS, and sorted for Cy3 transfection marker using a cell sorter (BD FACSArisII cell sorter).” for “hours.”

[1] = test system: p27^Kip1 protein levels in UACC893 cells; assay: p27^Kip1 Western blot in UACC893 cells with lapatinib and/or TRIM62 siRNA; conditions: UACC893 cells (amplified ErbB2), 0.5 μM lapatinib, siRNA from expression vector, FIG. 7
Procedure: A breast cancer cell line with an amplified ErbB2 gene (UACC893) was transfected with a TRIM62 siRNA expression vector or a vector that expressed a control siRNA. p27^Kip1 levels were assayed by Western blotting using a p27^Kip1 specific antibody. After treatment of the control-transfected cells with 0.5 μM lapatinib, p27^Kip1 levels increased as compared to the untreated cells. Cells transfected with the TRIM62 siRNA also had increased p27^Kip1 levels.
p27^Kip1 protein levels were measured in breast cancer cells with ErbB2 gene amplification after administration of an ErbB2 specific mall organic molecule, lapatinib. p27^Kip1 expression levels were higher after lapatinib was administered. […] The increased levels of p27^Kip1 expression coincided with increased nuclear localization of p27^Kip1. Data not shown.

[2] = test system: p27^Kip1 protein levels in UACC893 cells transfected with a TRIM62 expression vector; assay: p27^Kip1 Western blot in UACC893 cells overexpressing TRIM62, treated with lapatinib; conditions: UACC893 cells overexpressing TRIM62, 0.5 μM lapatinib, FIG. 8
Procedure: A breast cancer cell line with an amplified ErbB2 gene (UACC893) was transfected with a TRIM62 expression vector or an empty vector. p27^Kip1 levels were assayed by Western blotting using a p27^Kip1 specific antibody. Cells were treated with 0.5 μM lapatinib or buffer.
The effect of overexpression of TRIM62 protein on p27^Kip1 expression was determined in breast cancer cells with ErbB2 gene amplification. […] A breast cancer cell line with an amplified ErbB2 gene (UACC893) was transfected with a TRIM62 expression vector or an empty vector. p27^Kip1 levels were assayed by Western blotting using a p27^Kip1 specific antibody. Cells were treated with 0.5 μM lapatinib or buffer. As compared to an empty vector control, cells that overexpressed TRIM62 had low levels of p27^Kip1 protein expression.

Compound: 5′ AAGAAGCAGAGAAGCGCGC-3″ [T62siRNA]
- percentage of cells that remain in G1 (MCA10F cells): higher percentage
- EdU^+ cells (MCF10A cells): 11.1%
- EdU^+ cells (BT474 cells): 9%

Compound: CS(=O)(=O)CCNCc1ccc(-c2ccc3ncnc(Nc4ccc(OCc5cccc(F)c5)c(Cl)c4)c3c2)o1 [lapatinib]
- p27^Kip1 protein expression levels [1]: higher
- expression of p27^Kip1 protein [2]: did not result in increased expression
